For test [1], the system named is Selectin (E-Selectin and S-Selectin). The following applies: selectin-binding peptide, free sequence; literature reference; cited from earlier work.
Test [2] concerns TNF-α stimulated endothelial cells (ECs). The test is described as follows: Relative binding affinity of EC-SEAL conjugates to endothelial cells (Streptavidin-HRP absorbance). It counts as cell-based. The following applies: 3 μM treatments.

As a reminder, the IC50 is the midpoint of a concentration-inhibition curve. Consider IDLMQAR, for which the IC50 in test [1] was roughly 200 µM. Turning to “IEL/DGE-10,10 (peptide 1 IELLQARGC; peptide 2 DGEATDGC)”, in test [2], the “relative binding to endothelial cells vs single receptor-binding conjugates (FIG. 4)” value is on record as “greater binding”. Turning to IELLQAR, the IC50 in test [1] was roughly 200 µM. On to QITWAQLWNMMK, for which the IC50 in test [1] is roughly 0.16 µM.

The values are drawn from patent US10828370B2, “Selectin and ICAM/VCAM peptide ligand conjugates” (Purdue Research Foundation, priority 2014, dated 2020).
